Data: US9815787B2, “Sulfonamide derivative or pharmaceutically acceptable acid addition salt thereof” (UNIVERSITY OF TSUKUBA, priority 2013, dated 2017)

Molecular target: T1, OX2R (Homo sapiens, UniProt O43614)
T1 construct: expressed in transfected cells; host or cells: CHO (Chinese hamster ovary) cells constitutively expressing the OX2R gene and NFAT-luciferase (CHOOX2R)
T1 sequence (O43614 1-444): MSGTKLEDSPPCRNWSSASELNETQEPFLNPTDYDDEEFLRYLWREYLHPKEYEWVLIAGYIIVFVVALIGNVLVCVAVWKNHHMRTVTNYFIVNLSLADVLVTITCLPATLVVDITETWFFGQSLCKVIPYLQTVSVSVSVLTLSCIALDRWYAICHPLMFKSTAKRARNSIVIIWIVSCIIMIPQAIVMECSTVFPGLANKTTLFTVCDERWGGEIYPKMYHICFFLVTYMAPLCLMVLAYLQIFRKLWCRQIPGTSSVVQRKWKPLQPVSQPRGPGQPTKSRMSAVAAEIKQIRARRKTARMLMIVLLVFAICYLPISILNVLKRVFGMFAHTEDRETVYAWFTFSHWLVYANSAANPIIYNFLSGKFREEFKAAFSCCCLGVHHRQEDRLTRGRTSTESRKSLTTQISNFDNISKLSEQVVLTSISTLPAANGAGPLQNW
Assay: Evaluation of agonist activity against OX2R (CHOOX2R cells, Fura2AM fluorescence, FDSS3000)
Format: cell-based
Outline: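 CHO cells stably expressing human OX2R (and NFAT-luciferase), cultured 48 h in 5% FBS DMEM. Agonist response read as change in Fura2AM fluorescence on compound addition in HEPES buffer. Final compound concentrations 0.1, 1.0 or 10 μM; 1% DMSO.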

[1] = test compound 0.1 μM; relative to orexin-A as full agonist (100%); CHOOX2R cells
[2] = test compound 1.0 μM; relative to orexin-A as full agonist (100%); CHOOX2R cells
[3] = test compound 10 μM; relative to orexin-A as full agonist (100%); CHOOX2R cells
[4] = test compound 0.1 μM; CHOOX2R cells; relative to orexin-A as full agonist (100%)
[5] = test compound 1.0 μM; CHOOX2R cells; relative to orexin-A as full agonist (100%)
[6] = test compound 10 μM; CHOOX2R cells; relative to orexin-A as full agonist (100%)

SMILES	Response (0.1 μM (%)) [1]	Response (1.0 μM (%)) [2]	Response (10 μM (%)) [3]	EC50 (OX2R agonist activity; CHOOX2R cells)	Emax (conversion with orexin-A as full agonist (maximum agonist activity 100%))	Response (0.1 μM (%)) [4]	Response (1.0 μM (%)) [5]	Response (10 μM (%)) [6]
COc1ccc(Br)cc1C(=O)NCCNc1cccc(NS(=O)(=O)c2cc(-c3ccccc3F)ccc2OC)c1 [Example 4, 5-bromo-N-(2-((3-(2′-fluoro-4-methoxy-[1,1′-biphenyl]-3-ylsulfonamide)phenyl)amino)ethyl)-2-methoxybenzamide]	<5%	<5%	17%					
COc1cccc(C(=O)NCCNc2cccc(NS(=O)(=O)c3cc(-c4ccccc4C)ccc3OC)c2)c1 [Example 21, 3-methoxy-N-(2-((3-(4-methoxy-2′-methyl-[1,1′-biphenyl]-3-ylsulfonamide)phenyl)amino)ethyl)benzamide]	<5%	<5%	11%					
COc1cccc(C(=O)NCCNc2cccc(NS(=O)(=O)c3cc(-c4cncc(OC)c4)ccc3OC)c2)c1 [Example 98, 3-methoxy-N-(2-((3-(2-methoxy-5-(5-methoxypyridin-3-yl)phenylsulfonamido)phenyl)amino)ethyl)benzamide]	<5%	22%	91%					
COc1ccc(C(=O)NCCNc2cccc(NS(=O)(=O)c3cc(-c4cccc(C(=O)N(C)C)c4)ccc3OC)c2)cc1 [Example 44, 4′-methoxy-3′-(N-(3-((2-(4-methoxybenzamido)ethyl)amino)phenyl)sulfamoyl)-N,N-dimethyl-[1,1′-biphenyl]-3-carboxamide]				1050 nM	94%	<5%	28%	94%
COc1ccc(-c2cccc(C(=O)N(C)C)c2)cc1S(=O)(=O)Nc1cccc(NCCNC(=O)c2cnccc2Cl)c1 [Example 57, 4-chloro-N-(2-((3-(3′-(dimethylcarbamoyl)-4-methoxy-[1,1′-biphenyl]-3-ylsulfonamido)phenyl)amino)ethyl)nicotinamide]						<5%	9%	87%
COc1ccc(-c2cccc(C(=O)N3CCCCC3)c2)cc1S(=O)(=O)Nc1cccc(NCCNC(=O)c2cccnc2OC)c1 [Example 91, 2-methoxy-N-(2-((3-(4-methoxy-3′-(piperidine-1-carbonyl)-[1,1′-biphenyl]-3-ylsulfonamido)phenyl)amino)ethyl)nicotinamide]						42%	90%	80%
COc1ccc(-c2ccccc2F)cc1S(=O)(=O)Nc1cccc(NCCNC(=O)c2ccncc2)c1 [Example 16, N-(2-((3-(2′-fluoro-4-methoxy-[1,1′-biphenyl]-3-ylsulfonamide)phenyl)amino)ethyl)isonicotinamide]	<5%	<5%	<5%					
COc1cccc(C(=O)NCCNc2cccc(NS(=O)(=O)c3cc(-c4c(F)cccc4F)ccc3OC)c2)c1 [Example 18, N-(2-((3-(2′,6′-difluoro-4-methoxy-[1,1′-biphenyl]-3-ylsulfonamide)phenyl)amino)ethyl)-3-methoxybenzamide]	<5%	13%	151%					
COc1cccc(C(=O)NCCNc2cccc(NS(=O)(=O)c3cc(-c4ccccc4F)ccc3OC)c2)c1 [Example 2, N-(2-((3-(2′-fluoro-4-methoxy-[1,1′-biphenyl]-3-ylsulfonamide)phenyl)amino)ethyl)-3-methoxybenzamide]	<5%	27%	67%					
COc1cccc(C(=O)NCCNc2cccc(NS(=O)(=O)c3cc(-c4cccc(OC)c4)ccc3OC)c2)c1 [Example 31, N-(2-((3-(3′,4-dimethoxy-[1,1′-biphenyl]-3-ylsulfonamide)phenyl)amino)ethyl)-3-methoxybenzamide]	6%	67%	103%					
COc1cccc(C(=O)NCCNc2cccc(NS(=O)(=O)c3cc(-c4cc(Cl)ccc4Cl)ccc3OC)c2)c1 [Example 26, N-(2-((3-(2′,5′-dichloro-4-methoxy-[1,1′-biphenyl]-3-ylsulfonamide)phenyl)amino)ethyl)-3-methoxybenzamide]	<5%	5%	29%					
COc1ccc(-c2cccc(C(=O)N3CCCC3)c2)cc1S(=O)(=O)Nc1cccc(NCCNC(=O)c2sccc2Cl)c1 [Example 89, 3-chloro-N-(2-((3-(4-methoxy-3′-(pyrrolidine-1-carbonyl)-[1,1′-biphenyl]-3-ylsulfonamido)phenyl)amino)ethyl)thiophene-2-carboxamide]						93%	96%	97%
COc1cncc(-c2ccc(OC)c(S(=O)(=O)Nc3cccc(NCCNC(=O)c4ccccc4OC)c3)c2)c1 [Example 97, 2-methoxy-N-(2-((3-(2-methoxy-5-(5-methoxypyridin-3-yl)phenylsulfonamido)phenyl)amino)ethyl)benzamide]						<5%	12%	37%
COc1ccc(-c2cccc(C(=O)N(C)C)c2)cc1S(=O)(=O)Nc1cccc(NCCNC(=O)c2ccccc2C#N)c1 [Example 71, 3′-(N-(3-((2-(2-cyanobenzamido)ethyl)amino)phenyl)sulfamoyl)-4′-methoxy-N,N-dimethyl-[1,1′-biphenyl]-3-carboxamide]						<5%	39%	80%
COc1ccc(-c2ccccc2F)cc1S(=O)(=O)Nc1cccc(NCCNC(=O)c2cccnc2)c1 [Example 15, N-(2-((3-(2′-fluoro-4-methoxy-[1,1′-biphenyl]-3-ylsulfonamide)phenyl)amino)ethyl)nicotineamide]	<5%	<5%	6%					
COc1ccc(-c2cccc(C(=O)N(C)C)c2)cc1S(=O)(=O)Nc1cccc(NCCNC(=O)c2ccnn2C)c1 [Example 59, N-(2-((3-(3′-(dimethylcarbamoyl)-4-methoxy-[1,1′-biphenyl]-3-ylsulfonamido)phenyl)amino)ethyl)-1-methyl-1H-pyrazole-5-carboxamide]						<5%	<5%	64%
COc1ccc(-c2cccc(C(=O)N(C)C)c2)cc1S(=O)(=O)Nc1cccc(NCCNC(=O)c2cncc(Cl)c2)c1 [Example 58, 5-chloro-N-(2-((3-(3′-(dimethylcarbamoyl)-4-methoxy-[1,1′-biphenyl]-3-ylsulfonamido)phenyl)amino)ethyl)nicotinamide]						<5%	130%	119%
COc1cccc(C(=O)NCCNc2cccc(NS(=O)(=O)c3cc(-c4cc(OC)ccc4F)ccc3OC)c2)c1 [Example 35, N-(2-((3-(2′-fluoro-4,5′-dimethoxy-[1,1′-biphenyl]-3-ylsulfonamide)phenyl)amino)ethyl)-3-methoxybenzamide]						13%	68%	127%
COc1cccc(C(=O)NCCNc2cccc(NS(=O)(=O)c3cc(-c4ccccc4O)ccc3OC)c2)c1 [Example 22, N-(2-((3-(2′-hydroxy-4-methoxy-[1,1′-biphenyl]-3-ylsulfonamide)phenyl)amino)ethyl)-3-methoxybenzamide]	<5%	15%	21%					
COc1ccccc1C(=O)NCCNc1cccc(NS(=O)(=O)c2cc(-c3c(F)cccc3OC)ccc2OC)c1 [Example 23, N-(2-((3-(2′-fluoro-4,6′-dimethoxy-[1,1′-biphenyl]-3-ylsulfonamide)phenyl)amino)ethyl)-2-methoxybenzamide]	<5%	<5%	<5%					
COc1ccc(-c2cccc(C(=O)N(C)C)c2)cc1S(=O)(=O)Nc1cccc(NCCNC(=O)c2cccc(Cl)n2)c1 [Example 55, 6-chloro-N-(2-((3-(3′-(dimethylcarbamoyl)-4-methoxy-[1,1′-biphenyl]-3-ylsulfonamido)phenyl)amino)ethyl)picolinamide]						23%	144%	122%
